# Calls of active or inactive are those of the source. No cut-off for these calls is given here.
# Columns and labels:
# HCT-116 [1] = experiment: Antiproliferative activity against human HCT-116 cells incubated for 4 days by CCK8 assay; type: functional, cell-based; settings: HCT-116, 96 h
# HCT-116 [2] = experiment: Induction of RBM39 degradation in human HCT-116 cells assessed as fold change at 1 uM incubated for 24 hrs by Western blot analysis relative to control; type: cell-based
# HCT-116 [3] = experiment: Induction of RBM39 degradation in human HCT-116 cells at 0.1 to 1 uM incubated for 24 hrs by Western blot analysis; type: cell-based; settings: dose 0.1-1 µM
# [4] = Competitive inhibition of N-terminal His-tagged RBM39 (146 to 326 residues)/DCAF15 (2 to 600 residues)/full-length DDB1 (1 to 1140 residues)(unknown origin) incubated for 1 hr in presence of (R)-N-(3-(N-(3-Cyano-4-methyl-1H-indol-7-yl)sulfamoyl)phenyl)-2-(2-(((6-(3-(3',6'-dihydroxy-3-oxo-3H-spiro[isobenzofuran-1,9'-xanthen]-5-yl)thioureido)hexyl)amino)methyl)pyrrolidin-1-yl)-2-oxoacetamide by fluorescence polarization assay; design: species or system Homo sapiens
# HCT-116 [5] = experiment: Induction of RBM39 degradation in human HCT-116 cells assessed as fold change at 0.1 uM incubated for 24 hrs by Western blot analysis relative to control; type: cell-based
# [6] = Inhibition of DCAF15 (2 to 600 residues)/full-length DDB1 (1 to 1140 residues)(unknown origin) incubated for 1 hr by fluorescence polarization assay; design: species or system Homo sapiens
# [7] = Inhibition of N-terminal His-tagged RBM39 (146 to 326 residues)/DCAF15 (2 to 600 residues)/full-length DDB1 (1 to 1140 residues)(unknown origin) incubated for 1 hr by fluorescence polarization assay; design: species or system Homo sapiens
Structure (SMILES),IC50 (HCT-116 [1]),fold change (FC) (HCT-116 [2]),Activity (HCT-116 [3]),fold change (FC) (HCT-116 [5]),also measured
Cc1ccc(NS(=O)(=O)c2cccc(NC(=O)C(=O)NCCCCCN)c2)c2[nH]cc(C#N)c12,67.8 nM,0.3,Active,0.8,IC50 [4]: 301 nM
Cc1ccc(NS(=O)(=O)c2cccc(NC(=O)C(=O)N3CCC[C@H]3CO)c2)c2[nH]cc(C#N)c12,50.3 nM,0.32,Active,0.49,
Cc1ccc(NS(=O)(=O)c2cccc(NC(=O)C(=O)NCCN)c2)c2[nH]cc(C#N)c12,2900 nM,,,,
Cc1ccc(NS(=O)(=O)c2cccc(NC(=O)C(=O)N3CCC[C@@H]3CNCCCCCCNC(=S)Nc3ccc4c(c3)C(=O)OC43c4ccc(O)cc4Oc4cc(O)ccc43)c2)c2[nH]cc(C#N)c12,,,,,IC50 [6]: > 2000 nM; IC50 [7]: 208 nM
Cc1ccc(NS(=O)(=O)c2cccc(NC(=O)C(=O)NCCCCCCN)c2)c2[nH]cc(C#N)c12,150 nM,,,,
Cc1ccc(NS(=O)(=O)c2cccc(NC(=O)C(=O)N3CCC[C@@H]3CN)c2)c2[nH]cc(C#N)c12,52.3 nM,0.22,Active,0.52,
Cc1ccc(NS(=O)(=O)c2cccc(NC(=O)C(=O)NCCCCCN(C)C)c2)c2[nH]cc(C#N)c12,398 nM,,,,
Cc1ccc(NS(=O)(=O)c2cccc(NC(=O)C(=O)NCCCN)c2)c2[nH]cc(C#N)c12,1500 nM,,,,

# More lines, main results first:
IC50 (HCT-116 [1]),Structure (SMILES),fold change (FC) (HCT-116 [2]),Activity (HCT-116 [3]),fold change (FC) (HCT-116 [5]),also measured
70.3 nM,Cc1ccc(NS(=O)(=O)c2cccc(NC(=O)C(=O)N3CCCC[C@H]3CO)c2)c2[nH]cc(C#N)c12,0.21,Active,0.59,
58 nM,Cc1ccc(NS(=O)(=O)c2cccc(NC(=O)C(=O)N3CCCC[C@@H]3CO)c2)c2[nH]cc(C#N)c12,0.17,Active,0.66,
729 nM,COC[C@H]1CCCN1C(=O)C(=O)Nc1cccc(S(=O)(=O)Nc2ccc(C)c3c(C#N)c[nH]c23)c1,,,,
696 nM,COC[C@@H]1CCCN1C(=O)C(=O)Nc1cccc(S(=O)(=O)Nc2ccc(C)c3c(C#N)c[nH]c23)c1,,,,
1000 nM,Cc1ccc(NS(=O)(=O)c2cccc(NC(=O)C(=O)NCCCCN)c2)c2[nH]cc(C#N)c12,,,,
90.5 nM,Cc1ccc(NS(=O)(=O)c2cccc(NC(=O)C(=O)N3CCC[C@H]3CN)c2)c2[nH]cc(C#N)c12,0.18,Active,0.55,
927 nM,Cc1ccc(NS(=O)(=O)c2cccc(NC(=O)C(=O)NCCCCCCCN)c2)c2[nH]cc(C#N)c12,,,,
776 nM,Cc1ccc(NS(=O)(=O)c2cccc(NC(=O)C(=O)NCCCCCCN(C)C)c2)c2[nH]cc(C#N)c12,,,,

# — ChEMBL document CHEMBL6109117, “Synthesis of an RBM39 Degrader That Downregulates CEP192 and Induces Disorganized Spindle Structures” (J Med Chem, 2025)
